Data published in patent publication US12257253B2, “Triamterene or nolatrexed for use in the treatment of phenylketonuria” (SOM INNOVATION BIOTECH, S.A., priority 2019, dated 2025).
Counter-ions that a name gives are not always drawn. Like-named read-outs stand apart in the source and are kept apart here.

What was measured:
Arg261Gln (R261Q) PAH [1] = target: T1, Arg261Gln (R261Q) PAH (Homo sapiens (Human), UniProt P00439, R261Q); experiment: Thermal stability shift assay (DSF); format: binding; conditions: compound 30 μM (BH4 43 μM); for ΔTm1 R261Q PAH: shift of transition midpoint 1 vs NCC; for ΔTm2 R261Q PAH: shift of transition midpoint 2 vs NCC
Description: (§1) 1. Thermal Stability Shift Assay
(§2) Thórólfsson et al. (Biochemistry, 2002, 41(24), 7573-7585) describe that the thermal denaturation of hPAH occurs in three stages: (i) unfolding of the four regulatory domains, which is responsible for the low-temperature calorimetric transition (ii) unfolding of two (out of the four) catalytic domains, which is responsible for the high-temperature transition; and (iii) irreversible protein denaturation. The most important domain for stabilization is the regulatory domain.
(§3) Thus, to test the compound effect on thermal stability of the target protein a thermal stability shift assay (also called differential scanning fluorimetry (DSF)) was performed [Niesen F. H. et al., Nat Protoc., 2007, 2(9), 2212-2221; Gersting S. W. et al., Human Molecular Genetics, 2010, 19(10), 2039-2049; and Gersting S. W. et al., J. Biol Chem. 2010, 285(40), 30686-30697]. DSF monitors thermal unfolding of proteins in the presence of a fluorescent dye (SYPRO Orange; λexc=465 nm, λem=610 nm) and was performed using a real-time PCR instrument (Applied BioSystems 7000HT Fast Real-Time PCR System). Compounds that increase the midpoints of thermal denaturation (Tm) are considered to bind and stabilize the protein.
(§4) In brief, purified wild-type or Arg261Gln (which is the most frequent mutation responsive to BH4) PAH proteins (diluted in 20 mM NaHEPES, pH 7.0 and 200 mM NaCl, 2 mM DTT to 2 mg/ml) were used at a final concentration of 0.2 mg/ml protein per sample. The compounds were tested at a final concentration of 30 μM. A no compound control (NCC) was used according to the compound solvent at a final concentration of 2% (H2O, DMSO, ethanol, methanol). As a positive control we used the natural cofactor 6R-L-erythro-5,6,7,8-tetrahydrobiopterin (BH4, CAS 69056-38-8) stabilized in 100 mM dithiothreitol (DTT), in a final concentration of 43 μM. To exclude unspecific effects of the compound to the dye, a no protein control (NPC) was added (buffer, compound, dye). The measurement was performed in duplicates and samples were denatured by scanning a temperature range of 20 to 75° C. at a scan rate of 0.5° C./min.
(§5) The data was normalized and the respective Tm values were calculated by bi-phasic equation to determine temperatures at which half denaturation occurred (Software GraphPadPrism). To identify compound specific effects on the thermal stability of the target protein, the reference Tm (NCC) was used to calculate the temperature shift between compound treated and not treated protein (Tm−TmNCC), from duplicates, to provide transition midpoints shifts (ΔTm1 and ΔTm2). Tm1 and Tm2 are the two different transition mid point of the unfolding process of the protein as the tetrameric protein PAH unfolds in two steps due to its domains. A shift in Tm1 of 2° C. reflects a relevant increase in thermal stability on the regulatory domain and, thus, is considered a positive result.

wild-type PAH [2] = target: T2, wild-type PAH (Homo sapiens (Human), UniProt P00439); experiment: Thermal stability shift assay (DSF); format: binding; conditions: compound 30 μM (BH4 43 μM); for ΔTm1 WT PAH: shift of transition midpoint 1 vs NCC; for ΔTm2 WT PAH: shift of transition midpoint 2 vs NCC
Description: as §1, §2, §3, §4, §5

Arg261Gln (R261Q) PAH [3] = target: T1, Arg261Gln (R261Q) PAH; experiment: Phenylalanine hydroxylase residual protein amount (dot blot, COS-7 lysates); format: cell-based; conditions: COS-7 cells, compound 10 μM (sepiapterin 5 μM), read-out: PAH protein level (immune blot signal) R261Q PAH Mean
Experimental: (§6) 3. Phenylalanine Hydroxylase Residual Protein Amount
(§7) The analysis of the residual PAH protein amount was based on the method described in Gersting S. W. et al., Human Molecular Genetics, 2010, 19(10), 2039-2049 with modifications.
(§8) Detection of the residual PAH protein amount was performed as a dot blot using the lysates obtained from the cell culture where transiently transfected COS-7 cells (with wild-type PAH or PAH variant) were exposed for 48 h to compounds. The experiment was carried out from the same samples as used for measuring enzyme activities.
(§9) 2 μl of the lysate were dropped onto the nitrocellulose membrane. The membrane was allowed to air dry at room temperature for 30 min followed by 40 min blocking in 5% milk in TBS-Tween (room temperature). The membrane was incubated with the mouse monoclonal primary antibody specific for PAH (Millipore, Cat. No. MAB5278, 1:1000 dilution in 5% milk in TBS-Tween) for overnight at 4° C. Next, the membrane was washed (3×10 min in TBS-Tween) and incubated with the secondary HRP-conjugated antibody (anti-mouse antibody; Santa Cruz Biotechnology, Inc., Cat. No. sc-2005; 1:1000 dilution in 5% milk in TBS-Tween) followed by thorough washing in TBS-Tween (3×10 min) and distilled water (1×10 min). Blots were visualized with Pierce™ ECL substrate (ThermoFisher Scientific, Cat No. 32106) and chemiluminescence was monitored with a DIANA III Imaging system or ChemiDoc™ MP Imaging System (BioRad). To analyze the compound effect on the PAH protein amount densitometry analysis was performed using ImageJ Software.
(§10) The effect of compound on PAH protein amount was calculated from triplicates. As for determination of the enzyme activity the background of the not transfected cells (NT) was subtracted from the transfected cells (NCC or compound treated). In the next step delta of the NCC versus compound treated cells was calculated. Residual protein amount greater than 100% represents an increase in the stability of the enzyme with respect to NCC.

wild-type PAH [4] = target: T2, wild-type PAH; experiment: as above; format: cell-based; conditions: COS-7 cells, compound 10 μM (sepiapterin 5 μM), read-out: PAH protein level (immune blot signal) WT PAH Mean
Experimental: as §6, §7, §8, §9, §10

wild-type PAH [5] = target: T2, wild-type PAH; experiment: Isothermal titration calorimetry; format: binding; conditions: ITC; for Kd / N (stoichiometry) / ΔG / ΔH / −TΔS: 25° C., WT PAH
Description: 4. Isothermal Titration Calorimetry
Isothermal titration calorimetry (ITC) is a quantitative physical technique used to determine binding affinities of small molecules to proteins or other larger molecules [Freyer M. W. and Lewis E. A., Methods in Cell Biology, 2008, vol. 4, Chapter 4, pages 79-113]. The measurement detects changes of heat generated or absorbed when molecules interact, generate binding kinetics and thermodynamic profile of the molecular interaction. The following parameters are determined: KD (equilibrium dissociation constant), N (stoichiometry of the interaction (mol ligand/mol complex)), ΔH (enthalpy change), ΔG (Gibbs energy), T (temperature) and ΔS (entropy change).
ITC experiments were performed at 25° C. using a MicroCal PEAQ-ITC microcalorimeter (Malvern). PAH proteins were prepared in a HEPES buffer (HEPES 20 mM Hepes, 0.2M NaCl, 1 mM DTT, pH 7.0) containing 5% DMSO, in order to match the final DMSO concentration of the compounds dilutions. The protein concentration used (30 μM) was determined using ultraviolet (UV) absorbance at 280 nm. The compounds ([…]) were prepared using the exact same buffer. Twelve injections of 3 μL of compound/ligand were titrated into the sample cell (containing the protein) over 31 min with a stirring speed of 750 rpm. Data was baseline adjusted by subtracting the background obtained from equivalent injections of compound into the buffer solution. The titration curves were analyzed using MicroCal PEAQ-ITC analytics software (version 1.1.0.1262, Malvern Instruments Ltd.) using a model that assumes a set of identical binding sites where the total heat of the solution is calculated as:
[formula] where n is the number of binding sites, Mt is the total protein concentration in the cell, ΔH is the molar heat of ligand binding, Xt is the total concentration of ligand, and K the binding constant (K=1/KD). The heat released per injection (i), ΔQ(i), is calculated following the equation below, which compensates for the volume that is added in each injection (ΔVi). V0 is the initial volume in the cell.
The parameters, n, K, and ΔH are determined using non-linear square fitting using the Levenberg-Marquardt algorithm.

T2 sequence (P00439 whole entry): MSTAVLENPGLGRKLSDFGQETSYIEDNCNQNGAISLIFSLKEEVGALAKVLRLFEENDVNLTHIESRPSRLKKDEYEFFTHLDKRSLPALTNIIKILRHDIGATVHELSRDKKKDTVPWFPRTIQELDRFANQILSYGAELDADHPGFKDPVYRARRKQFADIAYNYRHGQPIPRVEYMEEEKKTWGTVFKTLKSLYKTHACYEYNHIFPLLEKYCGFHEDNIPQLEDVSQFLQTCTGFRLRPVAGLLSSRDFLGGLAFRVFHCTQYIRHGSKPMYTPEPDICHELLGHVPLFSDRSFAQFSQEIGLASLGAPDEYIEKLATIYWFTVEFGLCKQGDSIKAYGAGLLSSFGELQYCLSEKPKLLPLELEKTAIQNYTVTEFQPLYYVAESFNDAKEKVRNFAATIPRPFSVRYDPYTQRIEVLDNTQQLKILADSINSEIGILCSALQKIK
T1 sequence (P00439 whole entry R261Q): as the sequence (P00439 whole entry) above, with R261Q counted along it

Row | Structure (SMILES) | ΔTm1 R261Q PAH (Arg261Gln (R261Q) PAH [1]) [°C] | ΔTm2 R261Q PAH (Arg261Gln (R261Q) PAH [1]) [°C] | ΔTm1 WT PAH (wild-type PAH [2]) [°C] | ΔTm2 WT PAH (wild-type PAH [2]) [°C] | PAH protein level (% of control) at 10 µM (Arg261Gln (R261Q) PAH [3]; 48 h) [%] | PAH protein level (% of control) at 10 µM (wild-type PAH [4]; 48 h) [%] | other results
1 | CCc1cccc2cc(C(O)CNC(C)(C)C)oc12 (centres unmarked) [S-Bufuralol HCl, 2-(tert-butylamino)-1-(7-ethyl-1-benzofuran-2-yl)ethan-1-ol] | 3.73 | 0.92 | 1.05 | 0.24 |  |  | 
2 | CC(C)[C@H](N)C(=O)OCCOCn1cnc2c(=O)[nH]c(N)nc21 [Valacyclovir HCl, 2-[(2-amino-6-oxo-3H-purin-9-yl)methoxy]ethyl (2S)-2-amino-3-methylbutanoate] |  |  |  |  | 104 | 146 | 
3 | C=CCn1c(=O)n([C@@H]2O[C@H](CO)C(O)C2O)c2nc(N)[nH]c(=O)c21 (stereo in doubt) [Loxoribine, 2-amino-9-[(2R,3R,4S,5R)-3,4-dihydroxy-5-(hydroxymethyl)oxolan-2-yl]-7-prop-2-enyl-3H-purine-6,8-dione] |  |  | 3.57 |  |  |  | 
4 | Nc1cc(N2CCCCC2)nc(N)[n+]1[O-] [Minoxidil, 2,6-diamino-4-(piperidin-1-yl)pyrimidine 1-oxide] |  |  |  |  | 96.1 | 127 | 
5 | CC(C)[C@H](N)C(=O)OCC(CO)OCn1cnc2c(=O)[nH]c(N)nc21 (stereo partly drawn) [Valganciclovir HCl, [2-[(2-amino-6-oxo-3H-purin-9-yl)methoxy]-3-hydroxypropyl] (2S)-2-amino-3-methylbutanoate] |  |  |  |  |  |  | PAH protein level (% of control) at 10 µM (Arg261Gln (R261Q) PAH [3]; COS-7, 48 h): 141%; PAH protein level (% of control) at 10 µM (wild-type PAH [4]; COS-7, 48 h): 138%
6 | CCC[S+]([O-])c1ccc2[nH]c(NC(=O)OC)nc2c1 (centres unmarked) [Ricobendazole, methyl [5-(propane-1-sulfinyl)-1H-benzoimidazol-2-yl]-carbamate] | 2.19 | 3.39 | −0.48 | 2.57 | 104 | 154 | 
7 | C[C@H](O)[C@H](O)[C@H]1CNc2[nH]c(N)nc(=O)c2N1 [BH4, 6R-L-erythro-5,6,7,8-tetrahydrobiopterin] | 2.54 | 12.17 | 0.20 | 1.88 |  |  | Kd (wild-type PAH [5]): 40.7 ± 14.1 µM; N (stoichiometry) (wild-type PAH [5]): 0.936 ± 0.3 sites; ΔG (wild-type PAH [5]): -6 kcal/mol; ΔH (wild-type PAH [5]): -17.9 ± 7.91 kcal/mol; −TΔS (wild-type PAH [5]): 11.9 kcal/mol
8 | CCc1cccc2cc(C(O)CNC(C)(C)C)oc12 (centres unmarked) [Bufuralol HCl, 2-(tert-butylamino)-1-(7-ethyl-1-benzofuran-2-yl)ethan-1-ol] | 2.24 |  | 1.62 | −0.09 |  |  | 
9 | CN1CCc2cc3c(cc2C1O)OCO3 (centres unmarked) [Hydrastinine HCl, 6-methyl-7,8-dihydro-5H-[1,3]dioxolo[4,5-g]isoquinolin-5-ol] | 2.46 | 0.04 | −0.49 | 6.10 | 141 | 164 | Kd (wild-type PAH [5]): 2.99 ± 3.2 µM; N (stoichiometry) (wild-type PAH [5]): 1.310 ± 0.2 sites; ΔG (wild-type PAH [5]): -7.55 kcal/mol; ΔH (wild-type PAH [5]): 2.29 ± 0.55 kcal/mol; −TΔS (wild-type PAH [5]): -9.82 kcal/mol; Kd (in words) (wild-type PAH [5]; recombinant PAH): low micromolar range
